Experimental data taken from ChEMBL document CHEMBL5257126, “Moderately lipophilic 2-(Het)aryl-6-dithioacetals, 2-phenyl-1,4-benzodioxane-6-dithioacetals and 2-phenylbenzofuran-5-dithioacetals: Synthesis and primary evaluation as potential antidiabetic AMPK-activators” (Bioorg Med Chem, 2023).
Calls of active or inactive are those of the source. The calls are words filed in the database; no cut-off is given here.

Legend:
L6 [1] = assay: Induction of glucose uptake in rat L6 cells assessed as fold increase by measuring 2-NBDG uptake at 25 uM preincubated in high glucose medium for 48 hrs followed by compound addition and measured after 24 hrs; assay type: functional
L6 [2] = assay: Induction of glucose uptake in rat L6 cells assessed as fold increase by measuring 2-NBDG uptake at 2.5 uM preincubated in high glucose medium for 48 hrs followed by compound addition and measured after 24 hrs; assay type: functional
L6 [3] = assay: Induction of glucose uptake in rat L6 cells assessed as fold increase by measuring 2-NBDG uptake at 0.25 uM preincubated in high glucose medium for 48 hrs followed by compound addition and measured after 24 hrs; assay type: functional
[4] = molecular target: T1, AMP-activated protein kinase, AMPK (Rattus norvegicus) (UniProt P54645+Q09137+P80386+P80385+Q9QZH4+Q6V7V4+D4A7E4); assay: Activation of AMPK phosphorylation in rat L6 cells incubated for 24 hrs by Western blot analysis; assay type: cell-based; conditions: filed as activator, dose 0.6-9.31 µM
[5] = molecular target: T1, AMP-activated protein kinase, AMPK (Rattus norvegicus); assay: Activation of AMPK phosphorylation at Thr172 residue in rat L6 cells assessed as fold increase at 0.25 uM incubated for 24 hrs by Western blot analysis (reference value: 0.6); assay type: cell-based; conditions: filed as activator
[6] = molecular target: T1, AMP-activated protein kinase, AMPK (Rattus norvegicus); assay: Activation of AMPK phosphorylation at Thr172 residue in rat L6 cells assessed as fold increase at 10 uM incubated for 24 hrs by Western blot analysis (reference value: 0.6); assay type: cell-based; conditions: filed as activator
L6 [7] = assay: Inhibition of AKT phosphorylation at Ser473 in rat L6 cells assessed as fold reduction at 0.1 uM incubated for 24 hrs by Western blot analysis (reference value: 1.1); assay type: cell-based
L6 [8] = assay: Inhibition of AKT phosphorylation at Ser473 in rat L6 cells assessed as fold reduction at 0.25 uM incubated for 24 hrs by Western blot analysis (reference value: 1.1); assay type: cell-based
[9] = molecular target: T2, Serine/threonine-protein kinase STK11 (Rattus norvegicus) (UniProt D4AE59); assay: Activation of LKB1 in rat L6 cells assessed as fold increase in phosphorylation at Ser428 at 0.1 uM incubated for 24 hrs by Western blot analysis (reference value: 4.6); assay type: cell-based; conditions: filed as activator
T2 sequence (whole entry): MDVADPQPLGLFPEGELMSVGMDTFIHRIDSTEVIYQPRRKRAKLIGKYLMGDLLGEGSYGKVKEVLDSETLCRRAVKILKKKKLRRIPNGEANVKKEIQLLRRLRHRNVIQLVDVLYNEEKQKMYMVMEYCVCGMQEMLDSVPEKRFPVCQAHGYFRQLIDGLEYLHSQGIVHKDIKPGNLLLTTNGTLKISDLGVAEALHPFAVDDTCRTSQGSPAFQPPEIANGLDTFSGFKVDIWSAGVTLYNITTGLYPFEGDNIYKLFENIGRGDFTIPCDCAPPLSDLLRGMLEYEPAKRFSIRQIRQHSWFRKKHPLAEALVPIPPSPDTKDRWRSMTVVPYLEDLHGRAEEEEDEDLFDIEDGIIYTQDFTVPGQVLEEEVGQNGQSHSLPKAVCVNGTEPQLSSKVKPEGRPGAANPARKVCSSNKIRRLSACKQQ

[10] = molecular target: T2, Serine/threonine-protein kinase STK11 (Rattus norvegicus); assay: Activation of LKB1 in rat L6 cells assessed as fold increase in phosphorylation at Ser428 at 0.25 uM incubated for 24 hrs by Western blot analysis (reference value: 4.6); assay type: cell-based; conditions: filed as activator
[11] = molecular target: T2, Serine/threonine-protein kinase STK11 (Rattus norvegicus); assay: Activation of LKB1 in rat L6 cells assessed as fold increase in phosphorylation at Ser428 at 0.5 uM incubated for 24 hrs by Western blot analysis (reference value: 4.6); assay type: cell-based; conditions: filed as activator
[12] = molecular target: T2, Serine/threonine-protein kinase STK11 (Rattus norvegicus); assay: Activation of LKB1 in rat L6 cells assessed as fold increase in phosphorylation at Ser428 at 1 uM incubated for 24 hrs by Western blot analysis (reference value: 4.6); assay type: cell-based; conditions: filed as activator
[13] = molecular target: T2, Serine/threonine-protein kinase STK11 (Rattus norvegicus); assay: Activation of LKB1 in rat L6 cells assessed as fold increase in phosphorylation at Ser428 at 2.5 uM incubated for 24 hrs by Western blot analysis (reference value: 4.6); assay type: cell-based; conditions: filed as activator
[14] = molecular target: T2, Serine/threonine-protein kinase STK11 (Rattus norvegicus); assay: Activation of LKB1 in rat L6 cells assessed as fold increase in phosphorylation at Ser428 at 5 uM incubated for 24 hrs by Western blot analysis (reference value: 4.6); assay type: cell-based; conditions: filed as activator
[15] = molecular target: T2, Serine/threonine-protein kinase STK11 (Rattus norvegicus); assay: Activation of LKB1 in rat L6 cells assessed as fold increase in phosphorylation at Ser428 at 10 uM incubated for 24 hrs by Western blot analysis (reference value: 4.6); assay type: cell-based; conditions: filed as activator
L6 [16] = assay: Inhibition of AKT phosphorylation at Ser473 in rat L6 cells assessed as fold reduction at 0.5 uM incubated for 24 hrs by Western blot analysis (reference value: 1.1); assay type: cell-based
L6 [17] = assay: Inhibition of AKT phosphorylation at Ser473 in rat L6 cells assessed as fold reduction at 1 uM incubated for 24 hrs by Western blot analysis (reference value: 1.1); assay type: cell-based
L6 [18] = assay: Inhibition of AKT phosphorylation at Ser473 in rat L6 cells assessed as fold reduction at 2.5 uM incubated for 24 hrs by Western blot analysis (reference value: 1.1); assay type: cell-based
L6 [19] = assay: Inhibition of AKT phosphorylation at Ser473 in rat L6 cells assessed as fold reduction at 5 uM incubated for 24 hrs by Western blot analysis (reference value: 1.1); assay type: cell-based
L6 [20] = assay: Inhibition of AKT phosphorylation at Ser473 in rat L6 cells assessed as fold reduction at 10 uM incubated for 24 hrs by Western blot analysis (reference value: 1.1); assay type: cell-based
[21] = molecular target: T1, AMP-activated protein kinase, AMPK (Rattus norvegicus); assay: Activation of AMPK phosphorylation at Thr172 residue in rat L6 cells assessed as fold increase at 0.1 uM incubated for 24 hrs by Western blot analysis (reference value: 0.6); assay type: cell-based; conditions: filed as activator
[22] = molecular target: T1, AMP-activated protein kinase, AMPK (Rattus norvegicus); assay: Activation of AMPK phosphorylation at Thr172 residue in rat L6 cells assessed as fold increase at 0.5 uM incubated for 24 hrs by Western blot analysis (reference value: 0.6); assay type: cell-based; conditions: filed as activator
[23] = molecular target: T1, AMP-activated protein kinase, AMPK (Rattus norvegicus); assay: Activation of AMPK phosphorylation at Thr172 residue in rat L6 cells assessed as fold increase at 1 uM incubated for 24 hrs by Western blot analysis (reference value: 0.6); assay type: cell-based; conditions: filed as activator
[24] = molecular target: T1, AMP-activated protein kinase, AMPK (Rattus norvegicus); assay: Activation of AMPK phosphorylation at Thr172 residue in rat L6 cells assessed as fold increase at 2.5 uM incubated for 24 hrs by Western blot analysis (reference value: 0.6); assay type: cell-based; conditions: filed as activator
[25] = molecular target: T1, AMP-activated protein kinase, AMPK (Rattus norvegicus); assay: Activation of AMPK phosphorylation at Thr172 residue in rat L6 cells assessed as fold increase at 5 uM incubated for 24 hrs by Western blot analysis (reference value: 0.6); assay type: cell-based; conditions: filed as activator
[26] = Volume of distribution at steady state in C57BL/6 mouse at 5 mg/kg, iv; assay type: ADME, organism-based; conditions: in vivo, read-out: Vdss
[27] = Clearance in C57BL/6 mouse at 5 mg/kg, iv; assay type: ADME, organism-based; conditions: in vivo
[28] = Half life in C57BL/6 mouse at 5 mg/kg, iv; assay type: ADME, organism-based; conditions: in vivo
[29] = Tmax in C57BL/6 mouse at 25 mg/kg, po; assay type: ADME, organism-based; conditions: in vivo
[30] = Cmax in C57BL/6 mouse at 25 mg/kg, po; assay type: ADME, organism-based; set-up: dose 25 mg/kg, route po; conditions: in vivo
[31] = Half life in C57BL/6 mouse at 25 mg/kg, po; assay type: ADME, organism-based; conditions: in vivo
[32] = Oral bioavailability in C57BL/6 mouse at 25 mg/kg; assay type: ADME, organism-based; conditions: in vivo
[33] = Half life in C57BL/6 mouse blood; assay type: ADME, tissue-based
INS-1E [34] = assay: Anti-hyperglycemic activity in rat INS-1E cells assessed as insulin secretion […] after 24 hrs; assay type: functional, cell-based
INS-1E [35] = assay: Anti-hyperglycemic activity in rat INS-1E cells assessed as glucose stimulated insulin secretion at 1 to 2 uM after 24 hrs; assay type: functional, cell-based; conditions: dose 1-2 µM
INS-1E [36] = assay: Anti-hyperglycemic activity in rat INS-1E cells assessed as basal insulin secretion after 24 hrs; assay type: functional, cell-based
INS-1E [37] = assay: Anti-hyperglycemic activity in rat INS-1E cells assessed as total intracellular insulin secretion at 2 uM after 24 hrs; assay type: functional, cell-based
[38] = molecular target: T1, AMP-activated protein kinase, AMPK (Rattus norvegicus); assay: Activation of AMPK phosphorylation in rat INS-1E cells incubated for 24 hrs; assay type: cell-based; conditions: filed as activator, dose 0.5-2 µM
[39] = molecular target: T1, AMP-activated protein kinase, AMPK (Rattus norvegicus); assay: Activation of AMPK phosphorylation in rat INS-1E beta-cells at 2 uM incubated for 24 hrs; assay type: cell-based; conditions: filed as activator

SMILES: O=C(O)CCSC(SCCC(=O)O)c1ccc2c(c1)CCC(c1ccccc1)O2 (stereo unspecified)
- fold change (FC) (L6 [1]): 1.2
- fold change (FC) (L6 [2]): 1.1
- fold change (FC) (L6 [3]): 0.9

SMILES: c1coc(C2CCc3cc(C4SCCCS4)ccc3O2)c1 (stereo unspecified)
- fold change (FC) (L6 [1]): 1.2
- fold change (FC) (L6 [2]): 1
- fold change (FC) (L6 [3]): 1

SMILES: c1ccc(C2CCc3cc(C4NCCS4)ccc3O2)cc1 (stereo unspecified)
- fold change (FC) (L6 [1]): 1.2
- fold change (FC) (L6 [2]): 0.9
- fold change (FC) (L6 [3]): 1

SMILES: CC(C)(C)OC(=O)NCCSC(SCCNC(=O)OC(C)(C)C)c1ccc2c(c1)CCC(c1ccccc1)O2 (stereo unspecified)
- fold change (FC) (L6 [1]): 1
- fold change (FC) (L6 [2]): 1
- fold change (FC) (L6 [3]): 1

SMILES: c1cc(C2CCc3cc(C4SCCCS4)ccc3O2)ccn1 (stereo unspecified)
- fold change (FC) (L6 [1]): 1.1
- fold change (FC) (L6 [2]): 1.2
- fold change (FC) (L6 [3]): 1.8
- Activity [4]: Dose-Dependent Effect
- fold change (FC) [5]: 2.33
- fold change (FC) [6]: 9
- fold change (FC) (L6 [7]): 1.1
- fold change (FC) (L6 [8]): 0.22
- fold change (FC) [9]: 5.56
- fold change (FC) [10]: 5.33
- fold change (FC) [11]: 5.25
- fold change (FC) [12]: 5.71
- fold change (FC) [13]: 4.1
- fold change (FC) [14]: 4.78
- fold change (FC) [15]: 5
- fold change (FC) (L6 [16]): 0.12
- fold change (FC) (L6 [17]): 0.3
- fold change (FC) (L6 [18]): 0.18
- fold change (FC) (L6 [19]): 0.25
- fold change (FC) (L6 [20]): 0.18
- fold change (FC) [21]: 0.5
- fold change (FC) [22]: 1.33
- fold change (FC) [23]: 1.58
- fold change (FC) [24]: 5.11
- fold change (FC) [25]: 6.32
- Vd [26]: 1.23 L/kg
- clearance [27]: 31.2 mL/min/kg
- half-life [28]: 49.6 min
- Tmax [29]: 30 min
- Cmax [30]: 7630 ng/mL
- half-life [31]: 66.6 min
- bioavailability [32]: 99%
- half-life [33]: 66.6 min
- Activity (INS-1E [34]): Dose-Dependent Effect
- Activity (INS-1E [35]): Active
- Activity (INS-1E [36]): inactive
- Activity (INS-1E [37]): inactive
- Activity [38]: Dose-Dependent Effect
- Activity [39]: Active

SMILES: O[C@H]1CS[C@H](c2ccc3c(c2)CCC(c2ccccc2)O3)SC1 (stereo partly specified)
- fold change (FC) (L6 [1]): 1
- fold change (FC) (L6 [2]): 0.9
- fold change (FC) (L6 [3]): 1.1

SMILES: c1ccc(-c2cc3cc(C4SCCCS4)ccc3o2)cc1
- fold change (FC) (L6 [1]): 1.2
- fold change (FC) (L6 [2]): 1
- fold change (FC) (L6 [3]): 1

SMILES: OCCSC(SCCO)c1ccc2c(c1)CCC(c1cccnc1)O2 (stereo unspecified)
- fold change (FC) (L6 [1]): 1.9
- fold change (FC) (L6 [2]): 1.7
- fold change (FC) (L6 [3]): 1.4

SMILES: O=C(NCCSC(SCCNC(=O)OCc1ccccc1)c1ccc2c(c1)CCC(c1ccccc1)O2)OCc1ccccc1 (stereo unspecified)
- fold change (FC) (L6 [1]): 1.1
- fold change (FC) (L6 [2]): 1.1
- fold change (FC) (L6 [3]): 0.9

SMILES: c1ccc(C2COc3cc(C4SCCCCS4)ccc3O2)cc1 (stereo unspecified)
- fold change (FC) (L6 [1]): 1.1
- fold change (FC) (L6 [2]): 1
- fold change (FC) (L6 [3]): 1
